Laboratory results as given in patent US20090030086A1, “ANTIMICROBIAL AGENTS” (priority 2005, published 2009).
Values after ≈ are worked out from the molar mass of the structure shown. Where two headings read alike, the source gives them in different places.

Key:
[1] = tested on: S. aureus ATCC 29213; test: MBC assay; type: cell-based, Staphylococcus aureus; conditions: for MBC: Staphylococcus aureus
Description: (§1) The staphylococci and enterococci were cultured and maintained on Mueller-Hinton Medium (agar and broth) at pH 7.2; they were incubated aerobically at 37° C. for 24 hours.
(§2) This assay, normally carried out after an MIC assay, determines the minimum concentration of a compound that is lethal to the micro-organism being tested.
(§3) These samples were then individually sub-cultured on non-selective agar medium, under the incubation conditions described above. Following incubation they were examined visually for bacterial growth.
(§4) The following experiments all used S. aureus ATCC 29213 as the test organism. MIC, MBC and DDA assays, as described above, were carried out using a range of different benzoquinones and hydroquinones. Supplemented DDA assays, in the presence of salt, lipid and blood, were also conducted.

[2] = tested on: P. acnes NCTC 737; test: MIC assay; type: cell-based, Propionibacterium acnes; conditions: for MIC: Cutibacterium acnes
Description: 2. Propionibacterium spp.—the principal propionibacterial strain used in these studies was Propionibacterium acnes NCTC 737.
(§5) The Propionibacterium spp organisms were cultured and maintained on Wilkins-Chalgren Anaerobe Medium (agar and broth) at pH 6.0; cultures were incubated anaerobically at 37° C. for 72 hours.
(§6) This is a standard international method for quantitatively assessing the antimicrobial activity of a compound in a liquid medium. The method used a 96-well microtitre plate, capable of holding about 200 μl of liquid per well. […] The culture media were as described above for the relevant test organisms.
(§7) The wells were inoculated with a liquid suspension of freshly grown micro-organism and incubated under the conditions described above. After incubation, the microtitre plate was examined visually (with the aid of a light box) for cloudiness in each well, which would indicate microbial growth. The MIC value was recorded as the lowest concentration of test compound required to inhibit microbial growth, i.e., the lowest concentration for which the liquid in the well remained clear.
(§8) The assays were conducted in duplicate and included both negative (culture medium only) and positive (culture medium, diluting solvent and inoculum) controls.
(§9) MIC, MBC and DDA assays, as described above, were carried out using a range of different benzoquinones and hydroquinones. Supplemented DDA assays, in the presence of salt and lipid, were also conducted.

[3] = tested on: S. aureus ATCC 29213; test: Disc diffusion assay (DDA); type: cell-based, Staphylococcus aureus; conditions: Staphylococcus aureus
Description: as §1
(§10) A sterile paper disc was impregnated with a sample of the test compound and a minimum of 30 minutes allowed for the solvents to evaporate as far as possible. The disc was then placed on an agar plate onto which the test micro-organism had been inoculated. The plate was then incubated under the conditions described above, following which it was examined visually for signs of bacterial growth. […] The diameter of this zone of “inhibition” was measured using a ProtoCOL™ automated zone sizer (Synbiosis, Cambridge, UK).
(§11) The area of the zone of inhibition was calculated from the measured zone diameter (D) using the formula π(D/2)^2.
(§12) For most DDA assays, 200 μg of each compound was loaded onto each disc.

[4] = tested on: P. acnes NCTC 737; test: MBC assay; type: cell-based, Propionibacterium acnes; conditions: for MBC: Cutibacterium acnes, NCTC737
Description: as §5, §2, §3, §9

[5] = tested on: S. aureus ATCC 29213; test: Supplemented disc diffusion assay; type: cell-based, Staphylococcus aureus; conditions: Staphylococcus aureus, ATCC29213, 24 h
Description: as §1, §10
(§13) Performance under these conditions can provide a more reliable indication of activity on topical application. For assays conducted using S. aureus strains, the supplements were defibrinated horse blood (5% v/v), lipid (Tween™ 80 at 1% v/v) and sodium chloride (100 mM). For those using Propionibacterium spp. strains, the supplements were lipid (Tween™ 80 at 1% v/v) and sodium chloride (100 mM).
as §4, §12

[6] = tested on: P. acnes NCTC 737; test: Supplemented disc diffusion assay; type: cell-based, Propionibacterium acnes; conditions: for zone of inhibition at 200 µg/disc: Cutibacterium acnes, NCTC737, 72 h
Description: as §5, §10, §13, §9, §12

[7] = tested on: S. aureus ATCC 29213; test: MIC assay; type: cell-based, Staphylococcus aureus; conditions: for MIC: Staphylococcus aureus
Description: 1. Staphylococcus aureus—the principal staphylococcal test micro-organism used in these studies was Staphylococcus aureus ATCC 29213. This strain is the one recommended for QC/QA purposes in Minimum Inhibitory Concentration (MIC) assays by the US Clinical and Laboratory Standards Institute (formerly the NCCLS), an FDA-recognised body.
as §1, §6, §7, §8, §4

[8] = tested on: P. acnes NCTC 737; test: Disc diffusion assay (DDA); type: cell-based, Propionibacterium acnes; conditions: Cutibacterium acnes
Description: as §5, §10, §11, §12

[9] = ATCC29213, read-out: DDA (diameter of zone of inhibition)
[10] = NCTC737, read-out: DDA (diameter of zone of inhibition)
[11] = NCTC737, P. acnes NCTC 737, Wilkins-Chalgren broth pH 6.0, anaerobic, 37° C., 72 hours, read-out: MIC
[12] = ATCC29213, S. aureus ATCC 29213, unsupplemented agar, 200 μg per disc (thymoquinone 50 μg, 2,6-dimethoxy-p-benzoquinone 100 μg), read-out: DDA (diameter of zone of inhibition)
[13] = P. acnes NCTC 737, read-out: MBC
[14] = S. aureus ATCC 29213, Tween 80 at 1% v/v, 200 μg per disc (thymoquinone 50 μg, 2,6-dimethoxy-p-benzoquinone 100 μg), read-out: DDA + lipid
[15] = S. aureus ATCC 29213, defibrinated horse blood 5% v/v, 200 μg per disc (thymoquinone 50 μg, 2,6-dimethoxy-p-benzoquinone 100 μg), read-out: DDA + blood
[16] = S. aureus ATCC 29213, sodium chloride 100 mM, 200 μg per disc (thymoquinone 50 μg, 2,6-dimethoxy-p-benzoquinone 100 μg), read-out: DDA + salt
[17] = P. acnes NCTC 737, Tween 80 at 1% v/v, 200 μg per disc (2,6-dimethoxy-p-benzoquinone 100 μg), read-out: DDA + lipid
[18] = P. acnes NCTC 737, sodium chloride 100 mM, 200 μg per disc (2,6-dimethoxy-p-benzoquinone 100 μg), read-out: DDA + salt
[19] = ATCC29213, S. aureus ATCC 29213, Mueller-Hinton broth pH 7.2, aerobic, 37° C., 24 hours, read-out: MIC
[20] = NCTC737, P. acnes NCTC 737, unsupplemented agar, 200 μg per disc (2,6-dimethoxy-p-benzoquinone 100 μg), read-out: DDA (diameter of zone of inhibition)

| MIC [2, 11] | SMILES | MIC/MBC ratio [1] | MBC ([1]; ATCC29213) | activity against P. acnes NCTC 737 (in words) [2] | MIC ([2]; NCTC737, 72 h, pH 6) | zone of inhibition at 200 µg/disc [3, 9] | MBC [4] | MIC/MBC ratio ([4]; P. acnes NCTC 737) | zone of inhibition at 200 µg/disc ([5]; read-out: DDA + blood) | zone of inhibition at 200 µg/disc ([5]; read-out: DDA + lipid) | zone of inhibition at 200 µg/disc ([5]; read-out: DDA + salt) | zone of inhibition at 200 µg/disc ([6]; read-out: DDA + lipid) | zone of inhibition at 200 µg/disc ([6]; read-out: DDA + salt) | MIC ([7]; ATCC29213, 24 h, pH 7.2) | zone of inhibition at 200 µg/disc [8, 10] | MBC ([1]; ATCC29213, read-out: MBC) | zone of inhibition at 200 µg/disc [3, 12] | MBC [4, 13] | zone of inhibition at 200 µg/disc [5, 14] | zone of inhibition at 200 µg/disc [5, 15] | also measured |
| --- | --- | --- | --- | --- | --- | --- | --- | --- | --- | --- | --- | --- | --- | --- | --- | --- | --- | --- | --- | --- | --- |
| – | CC1=CC(=O)C=CC1=O [2-methyl-p-benzoquinone] | 1 | 15.6 µg/mL (≈ 128 µM) | strongly so | 15.6 µg/mL (≈ 128 µM) | 35.1 mm | 31.2 µg/mL (≈ 256 µM) | 0.5 | 15.9 mm | 35.6 mm | 35 mm | 48.9 mm | 42.6 mm | 15.6 µg/mL (≈ 128 µM) | 35.9 mm | – | – | – | – | – | effect of lipid on antimicrobial activity ([6]; P. acnes NCTC 737, activity increases in the presence of lipid): potentiated |
| – | CC1=C(Br)C(=O)C(C(C)C)=C(Br)C1=O [2,5-dibromo-6-isopropyl-3-methyl-p-benzoquinone] | 0.5 | 1.95 µg/mL (≈ 6.06 µM) | strongly so | 0.98 µg/mL (≈ 3.04 µM) | 39.5 mm | 3.9 µg/mL (≈ 12.1 µM) | 0.25 | 19.3 mm | 23 mm | 42.3 mm | 34.7 mm | 71.2 mm | 0.98 µg/mL (≈ 3.04 µM) | > 90 mm | – | – | – | – | – | activity against S. aureus ATCC 29213 (in words) [7]: strongly so |
| 15.6 µg/mL (≈ 99.6 µM) | CC1=CC(=O)C(Cl)=CC1=O [2-chloro-5-methyl-p-benzoquinone] | 1 | – | – | – | – | – | 1 | – | – | – | – | – | – | – | 15.6 µg/mL (≈ 99.6 µM) | 34.5 mm | 15.6 µg/mL (≈ 99.6 µM) | 33.9 mm | 17.7 mm | zone of inhibition at 200 µg/disc [5, 16]: 34.2 mm; zone of inhibition at 200 µg/disc [6, 17]: 38.8 mm; zone of inhibition at 200 µg/disc [6, 18]: 37.2 mm; MIC [7, 19]: 15.6 µg/mL (≈ 99.6 µM); zone of inhibition at 200 µg/disc [8, 20]: 38.9 mm |
| 125 µg/mL (≈ 806 µM) | O=[N+]([O-])c1c(O)cccc1O [2-nitroresorcinol] | <0.5 | – | – | – | – | – | <0.5 | – | – | – | – | – | – | – | > 250 µg/mL | 10.5 mm | > 250 µg/mL | 0 mm | 0 mm | zone of inhibition at 200 µg/disc [5, 16]: 12.8 mm; zone of inhibition at 200 µg/disc [6, 17]: 0 mm; zone of inhibition at 200 µg/disc [6, 18]: 12.7 mm; MIC [7, 19]: 125 µg/mL (≈ 806 µM); zone of inhibition at 200 µg/disc [8, 20]: 0 mm |
